For data set [1], the target named is T1, HsrA (Helicobacter pylori, UniProt O25684).
T1 construct: gene HP_1043
The data set is described as follows: SPR (Biacore T200, […] model); also EMSA inhibition of HsrA-DNA binding.

In data set [2] the target is T2, HsrA (Helicobacter pylori (strain of the recombinant protein not stated)) (UniProt O25684).
T2 sequence: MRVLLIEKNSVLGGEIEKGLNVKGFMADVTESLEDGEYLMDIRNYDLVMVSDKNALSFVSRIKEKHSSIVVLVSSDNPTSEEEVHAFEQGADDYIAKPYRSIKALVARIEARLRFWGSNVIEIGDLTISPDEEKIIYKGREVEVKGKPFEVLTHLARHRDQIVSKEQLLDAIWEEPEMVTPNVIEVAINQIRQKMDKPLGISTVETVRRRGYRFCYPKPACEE
Description: EMSA. The conditions noted are these: EMSA binding buffer (Beyotime GS005, composition and pH not stated), 25 uL, 4 uM HsrA, 50 ng each DNA, 25 C 30 min; 5% native PAGE, 0.5x TBE.

Drawing on publication PMC12658632, “Discovery of Sesamolin as a Potential Anti-Helicobacter pylori Agent by Virtual Screening against the Essential Response Regulator HsrA with In Vitro Evaluation” (ACS Omega, 2025), this text covers Kd and binding for three compounds.

Read-outs that look alike come from different tables or passages of the source.

T1 sequence (O25684 entry or part of it): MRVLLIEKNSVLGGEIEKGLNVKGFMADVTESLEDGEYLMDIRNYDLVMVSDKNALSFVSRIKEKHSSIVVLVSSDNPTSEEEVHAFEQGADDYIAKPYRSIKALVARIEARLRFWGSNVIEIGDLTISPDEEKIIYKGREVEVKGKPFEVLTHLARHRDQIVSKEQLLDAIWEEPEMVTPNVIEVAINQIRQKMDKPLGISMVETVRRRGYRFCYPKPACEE

With `c1cc2c(cc1O[C@H]1OC[C@H]3[C@@H]1CO[C@@H]3c1ccc3c(c1)OCO3)OCO2` [compound 3, Sesamolin], the Kd in data set [1] stood at 17.1 nM.
With `c1c2c(cc3c1OCO3)-c1cc3ccc4c(c3c[n+]1CC2)OCO4` [compound 6, Coptisine], the Kd in data set [1] (read-out: Kd) amounted to 400 nM.
Turning to “GCCAAAACGCCTAAAGCCATGATAACCTTTTTCATCGTTTGTCTCCTCTACTTATCAAAATGATCTTAAAATGATACAATTACAAGTTTAAGTTTTGCTTAAAAATGAAGTGAAAATGAGAGAAATAAATATGATTTTATACATTCATATCCCCTTTTGTGAAAATAAATGCGGTTATTGCGCTTTCAA (double strand) [hp1227 promoter probe]”, the binding result in data set [2] was “binds”.
